The structures appear in SMILES notation.

Series [1] relates to primary cultured guinea-pig urinary bladder (GPB) cells. In words: Membrane hyperpolarization (MHP) assay, DiBAC(4)3 / FLIPR. Type of series: cell-based. Particulars: Cavia porcellus; for EC50: concentration that elicits 50% of the maximal response for the test sample; for Emax: maximal steady-state hyperpolarization, normalized to response with 10 μM P1075 (100%). In short, it runs like this:
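Primary smooth-muscle cells from male guinea-pig bladder, grown to confluence, loaded 30 min at 37° C with 5 μM DiBAC(4)3 in HEPES buffer pH 7.4. Fluorescence drop on FLIPR followed 25 min after compound; steady-state hyperpolarization normalized to 10 μM P1075 (100%), EC50 from four-parameter fit of five concentrations.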

`Cc1ccc(C(=O)NC(Cc2ccccc2)NC(=S)Nc2cccc([N+](=O)[O-])c2)cc1` (stereo not drawn) [Example 30, 4-methyl-N-(1-{[(3-nitroanilino)carbothioyl]amino}-2-phenylethyl)benzamide] yielded a melting point of 170 to 171 °C. In series [1], this compound came in with an EC50 of 3200 nM and an Emax of 22%.
The corresponding values for `CSCCC(NC(=O)c1ccc(Cl)cc1)NC(=NC#N)Nc1cccnc1` (stereo not drawn) [Example 99, 4-chloro-N-[1-{[(cyanoimino)(3-pyridinylamino)methyl]amino}-3-(methylsulfanyl)propyl]benzamide] are 104 to 105 °C, 3500 nM and 84%.
The corresponding values for `C=CCC(C)(C)C(NC(=O)c1ccc(Cl)cc1)NC(=N[N+](=O)[O-])Nc1cccnc1` (stereo not drawn) [Example 127, 4-chloro-N-(1-{[(nitroimino)(3-pyridinylamino)methyl]amino}-2,2-dimethyl-4-pentenyl)benzamide] are 200 to 203 °C, 1200 nM and 65%.
On to `COc1ccc(NC(=S)NC(NC(=O)c2ccc(C)cc2)C(F)(F)F)cc1` (stereo not drawn) [Example 6, 4-methyl-N-(2,2,2-trifluoro-1-{[(4-methoxyanilino)carbothioyl]amino}ethyl)benzamide], for which the melting point was 193 to 194 °C. In series [1], a half-maximal response (EC50) required 1550 nM and the Emax was 107%.
`Cc1ccc(C(=O)NC(NC(=O)Nc2ccccc2F)C(Cl)(Cl)Cl)cc1` (stereo not drawn) [Example 43, 4-methyl-N-(2,2,2-trichloro-1-{[(2-fluoroanilino)carbonyl]amino}ethyl)benzamide] gave a melting point of 257 to 259 °C. In series [1], this compound gave an EC50 of 1210 nM and a maximal response (Emax) of 80%.
The corresponding values for `Cc1ccc(C(=O)NC(NC(=S)Nc2ccc(Cl)nc2)C(F)(F)F)cc1` (stereo not drawn) [Example 7, N-[1-({[(6-chloro-3-pyridinyl)amino]carbothioyl}amino)-2,2,2-trifluoroethyl]-4-methylbenzamide] are 199 to 200 °C, 450 nM and 101%.
The corresponding values for `Cc1ccc(NC(=S)NC(NC(=O)c2ccc(C)cc2)C(F)(F)F)cc1` (stereo not drawn) [Example 10, 4-methyl-N-{2,2,2-trifluoro-1-[(4-toluidinocarbothioyl)amino]ethyl}benzamide] are 192 to 193 °C, 700 nM and 65%.
Compound `CCC(CC)C(NC(=O)c1ccc(Cl)cc1)NC(=C[N+](=O)[O-])Nc1cccnc1` (stereo not drawn) [Example 68, 4-chloro-N-(2-ethyl-1-{[2-nitro-1-(3-pyridinylamino)ethenyl]amino}butyl)benzamide] showed a melting point of 192 to 193 °C. In series [1], this compound yielded an EC50 of 430 nM and an Emax of 99%.
For `N#CN=C(NCNC(=O)c1ccc(Cl)cc1)Nc1cccnc1` [Example 85, 4-chloro-N-({[(cyanoimino)(3-pyridinylamino)methyl]amino}methyl)benzamide], the melting point was 196 to 197 °C. In series [1], this compound yielded an EC50 of over 10000 nM and a maximum response (Emax) of under 20%.
Taken in the same sequence, the figures for `Cc1ccc(C(=O)NC(NC(=S)Nc2cccnc2)C(C)C)cc1` (stereo not drawn) [Example 35, 4-methyl-N-(2-methyl-1-{[(3-pyridinylamino)carbothioyl]amino}propyl)benzamide] were 184 to 186 °C, 13100 nM and 40%.
Turning to `O=C(NC(CC12CC3CC(CC(C3)C1)C2)NC(=N[N+](=O)[O-])Nc1cccnc1)c1ccc(Cl)cc1` (stereo not drawn) [Example 134, N-(2-(1-adamantyl)-1-{[(nitroimino)(3-pyridinylamino)methyl]amino}ethyl)-4-chlorobenzamide], the melting point lay in the range of 219 to 220 °C. In addition, in series [1], a half-maximal effect (EC50) was put at 2000 nM and the Emax is 86%.

A word on the EC50: it is the midpoint of the concentration-response curve. For orientation: Emax means the size of the effect at its maximum, as opposed to the concentration needed. In general, melting point refers to the temperature, or range, at which the solid turns liquid.

These data come from patent publication US20020028836A1, “Potassium channel openers” (priority 2000, published 2002).
